From ChEMBL document CHEMBL1144900, “Synthesis and SAR of thrombin inhibitors incorporating a novel 4-amino-morpholinone sscaffold: analysis of X-ray crystal structure of enzyme inhibitor complex” (J Med Chem, 2003)

Biological target: Prothrombin (Homo sapiens, UniProt P00734)
Experiment: Inhibitory activity against human thrombin

| Structure (SMILES) | IC50 [µM] |
| --- | --- |
| N=C(N)c1ccc(CNC(=O)CC2OCCN(Nc3ccc(-c4ccccc4)cc3)C2=O)cc1 (stereo not given) | 4.88 |
| N=C(N)c1ccc(CNC(=O)CC2OCCN(NS(=O)(=O)c3ccc(F)cc3F)C2=O)cc1 (stereo not given) | 8.14 |
| COc1ccc(OC)c(S(=O)(=O)NN2CCOC(CC(=O)NCc3ccc(C(=N)N)cc3)C2=O)c1 (stereo not given) | 0.13 |
| N=C(N)c1ccc(CNC(=O)CC2OCCN(N(Cc3ccccc3)Cc3ccccc3)C2=O)cc1 (stereo not given) | 19.8 |
| Cc1ccc(CCNN2CCOC(CC(=O)NCc3ccc(C(=N)N)cc3)C2=O)cc1 (stereo not given) | 0.961 |
| N=C(N)c1ccc(CNC(=O)CC2OCCN(Nc3cccc(N)c3)C2=O)cc1 (stereo not given) | > 32 |
| N=C(N)c1ccc(CNC(=O)C[C@H]2OCCN(NS(=O)(=O)Cc3ccccc3)C2=O)cc1 | 36.8 |
| N=C(N)c1ccc(CNC(=O)C[C@H]2OCCN(NC(=O)c3ccc(N)cc3)C2=O)cc1 | 150 |
| CC(C)OC(=O)NN1CCO[C@H](CC(=O)NCc2ccc(C(=N)N)cc2)C1=O | 80.6 |
| N=C(N)c1ccc(CNC(=O)C[C@H]2OCCN(NCCCc3ccccc3)C2=O)cc1 | 45.4 |
| N=C(N)c1ccc(CNC(=O)C[C@H]2OCCN(N(CCCc3ccccc3)CCCc3ccccc3)C2=O)cc1 | 36.2 |
| CC(C)(C)OC(=O)NN1CCO[C@H](CC(=O)NCc2ccc(C(=N)N)cc2)C1=O | 54.7 |
| N=C(N)c1ccc(CNC(=O)C[C@H]2OCCN(NCc3ccccc3)C2=O)cc1 | 13.6 |
| N=C(N)c1ccc(CNC(=O)C[C@H]2OCCN(NCC(=O)c3ccccc3)C2=O)cc1 | > 133 |
| N=C(N)c1ccc(CNC(=O)C[C@H]2OCCN(NC(=O)c3ccccc3)C2=O)cc1 | 106 |
| N=C(N)c1ccc(CNC(=O)C[C@@H]2OCCN(NS(=O)(=O)Cc3ccccc3)C2=O)cc1 | 9.15 |
| N=C(N)c1ccc(CNC(=O)C[C@H]2OCCN(NS(=O)(=O)c3ccccc3)C2=O)cc1 | 37.7 |
| N=C(N)c1ccc(CNC(=O)C[C@H]2OCCN(NCCc3ccccc3)C2=O)cc1 | 35.6 |
| N=C(N)c1ccc(CNC(=O)C[C@@H]2OCCN(NCCCc3ccccc3)C2=O)cc1 | 4.74 |
| N=C(N)c1ccc(CNC(=O)C[C@@H]2OCCN(NCc3ccccc3)C2=O)cc1 | 10.6 |
| N=C(N)c1ccc(CNC(=O)C[C@@H]2OCCN(NCCc3ccccc3)C2=O)cc1 | 1.79 |
| Cc1ccc(C)c(S(=O)(=O)NN2CCOC(CC(=O)NCc3ccc(C(=N)N)cc3)C2=O)c1 (stereo not given) | 0.247 |
| Cc1cc(S(=O)(=O)NN2CCOC(CC(=O)NCc3ccc(C(=N)N)cc3)C2=O)c(C)cc1Cl (stereo not given) | 0.164 |
| N=C(N)c1ccc(CNC(=O)CC2OCCN(NS(=O)(=O)c3ccc4c(c3)CCO4)C2=O)cc1 (stereo not given) | 0.486 |
| N=C(N)c1ccc(CNC(=O)CC2OCCN(Nc3ccccc3)C2=O)cc1 (stereo not given) | 34.4 |
